Results from patent US4284621A, “Agents for protection against light” (Bayer Aktiengesellschaft, priority 1978, dated 1981).
Structures can show the parent of a compound that is named as a salt.

Key:
[1] = UV absorption spectral data (wavelength λmax, molar extinction ε, specific extinction E1^1); assay type: physicochemical; parameters: Wavelength λmax: unit not given beside the values; conditions: for Molar extinction ε: in M-1cm-1; for specific extinction (in words, compared with compounds of formula I): comparison with compounds of formula I
14 day LD 50 (tolerance) = assay type: in vivo
[2] = Solubilities at room temperature (20-25° C.) in groundnut oil and groundnut oil/liquid paraffin 1:9; assay type: physicochemical
[3] = Table 1, second value, in parentheses

Compound	Specific extinction E1^1 ([1]; Table II)	Wavelength λmax (nm) ([1]; Table II)	Molar extinction ε ([1]; Table II)	Specific extinction E1^1 ([1]; Table 1)	Wavelength λmax ([1]; Table 1)	Molar extinction ε ([1]; Table 1)	also measured
4-methoxy-benzylidene-cyanoacetic acid isodecyl ester [iso-Decyl]	790	341	27,000				
4-methoxy-benzylidene-cyanoacetic acid isononyl ester [iso-Nonyl]	860	341	28,400				14 day LD 50 (14 day LD 50 (tolerance)): 20.76 mL/kg
COC(=O)C(C#N)=Cc1ccccc1OC [2-Methoxybenzylidenecyanoacetic acid methyl ester]				470	354	10,300	Molar extinction ε (value in parentheses) [1, 3]: 12,100; Specific extinction E1^1 (value in parentheses) [1, 3]: 560; Wavelength λmax (value in parentheses) [1, 3]: 297
COC(=O)C(C#N)=Cc1ccc(OC)c(OC)c1 [3,4-Dimethoxybenzylidenecyanoacetic acid methyl ester]				970	360	24,000	
CCOC(=O)C(=Cc1ccc(OC)c(OC)c1)C(=O)OCC [3,4-Dimethoxybenzylidenemalonic acid diethyl ester]				670	308	20,500	
COC(=O)C(C#N)=Cc1cccc(N)c1 [3-Aminobenzylidenecyanic acid methyl ester]				830	310	16,800	
COC(=O)C(C#N)=Cc1cccc(O)c1 [3-Hydroxybenzylidenecyanoacetic acid methyl ester]				900	303	18,200	
CCOC(=O)C(=Cc1cccc(O)c1)C(=O)OCC [3-Hydroxybenzylidenemalonic acid diethyl ester]				770	282	20,300	
COC(=O)C(C#N)=Cc1cccc(OC)c1 [3-Methoxybenzylidenecyanoacetic acid methyl ester]				710	299	15,300	
COC(=O)C(C#N)=Cc1ccc(Cl)cc1 [4-Chlorobenzylidenecyanoacetic acid methyl ester]				940	313	20,900	
COC(=O)C(C#N)=Cc1ccc(N(C)C)cc1 [4-Dimethylaminobenzylidenecyanoacetic acid methyl ester]				870	421	19,900	
CN(C)c1ccc(C=C(C(N)=O)C(N)=O)cc1 [4-Dimethylaminobenzylidenemalonic acid diamide]				870	369	20,400	
COC(=O)C(=Cc1ccc(N(C)C)cc1)C(=O)OC [4-Dimethylaminobenzylidenemalonic acid dimethyl ester]				1,200	375	31,400	
CCOC(=O)C(=Cc1ccc(O)c(OC)c1)C(C)=O [4-Hydroxy-3-methoxybenzylideneacetoacetic acid ethyl ester]				690	340	18,200	
COC(=O)C(C#N)=Cc1ccc(O)c(OC)c1 [4-Hydroxy-3-methoxybenzylidenecyanoacetic acid methyl ester]				960	366	22,400	
CCOC(=O)C(=Cc1ccc(O)c(OC)c1)C(=O)OCC [4-Hydroxy-3-methoxybenzylidenemalonic acid diethyl ester]				630	332	20,750	
COC(=O)C(C#N)=Cc1ccc(O)cc1 [4-Hydroxybenzylidenecyanoacetic acid methyl ester]				1,350	348	27,300	
C=C(C)C(=O)Oc1ccc(C=C(C#N)C(=O)OC)cc1 [4-Methacryloxybenzylidenecyanoacetic acid methyl ester]				1,230	312	23,000	
CCOC(=O)C(=Cc1ccc(OC)cc1)C(C)=O [4-Methoxybenzylideneacetoacetic acid ethyl ester]				770	316	19,000	

Compound	Specific extinction E1^1 ([1]; Table II)	Wavelength λmax (nm) ([1]; Table II)	Molar extinction ε ([1]; Table II)	Specific extinction E1^1 ([1]; Table 1)	Wavelength λmax ([1]; Table 1)	Molar extinction ε ([1]; Table 1)	also measured
COc1ccc(C=C(C#N)C(N)=O)cc1 [4-Methoxybenzylidenecyanoacetic acid amide]				1,200	332	24,300	
COc1ccc(C=C(C#N)C(=O)N(CC(C)C)CC(C)C)cc1 [4-Methoxybenzylidenecyanoacetic acid diisobutylamide]				510	325	15,900	
COC(=O)C(C#N)=Cc1ccc(OC)cc1 [4-Methoxybenzylidenecyanoacetic acid methyl ester]				1,350	340	29,300	
COc1ccc(C=C(C(=O)OCC(C)C)C(=O)OCC(C)C)cc1 [4-Methoxybenzylidenemalonic acid diisobutyl ester]				740	312	24,800	
COC(=O)C(C#N)=Cc1ccc(C)cc1 [4-Methylbenzylidenecyanoacetic acid methyl ester]				1,230	317	25,000	
COc1ccc(C(=O)c2cc(S(=O)(=O)O)c(OC)cc2O)c(O)c1 [(1), sodium salt of 2,2'-dihydroxy-4,4'-dimethoxybenzophenone-5-sulphonic acid]	160	330	5,920				specific extinction (in words, compared with compounds of formula I) ([1]; Table II): significantly lower specific extinction
O=C(c1ccc(O)cc1O)c1ccc(O)cc1O [(2), 2,2',4,4'-tetrahydroxybenzophenone]	645	351	15,900				Solubility at room temperature in groundnut oil (%) [2]: 0.8%; specific extinction (in words, compared with compounds of formula I) ([1]; Table II): significantly lower specific extinction
COc1ccc(C(=O)CC(=O)c2ccc(OC)cc2)cc1 [(3), dianisoylmethane]							Solubility at room temperature in groundnut oil (%) [2]: 1%
COC(=O)C(C#N)=Cc1ccco1 [Furfurylidenecyanoacetic acid methyl ester]				1,530	337	27,000	
CCCCOC(=O)C(C#N)=Cc1ccc(OC)cc1 [n-Butyl]	1,090	342	28,300				Solubility at room temperature in groundnut oil (%) [2]: 17%; Solubility at room temperature in groundnut oil/liquid paraffin 1:9 (%) [2]: 3%
CCCCCCCCCCOC(=O)C(C#N)=Cc1ccc(OC)cc1 [n-Decyl, 4-methoxy-benzylidene-cyanoacetic acid n-decyl ester]	810	341	27,700				
CCCCCCCCCCCCOC(=O)C(C#N)=Cc1ccc(OC)cc1 [n-Dodecyl]	770	342	28,450				Solubility at room temperature in groundnut oil (%) [2]: 14%
CCCCCCCOC(=O)C(C#N)=Cc1ccc(OC)cc1 [n-Heptyl]	940	341	28,300				Solubility at room temperature in groundnut oil (%) [2]: 33%; Solubility at room temperature in groundnut oil/liquid paraffin 1:9 (%) [2]: 7%
CCCCCCOC(=O)C(C#N)=Cc1ccc(OC)cc1 [n-Hexyl, 4-methoxy-benzylidene-cyanoacetic acid n-hexyl ester]	990	342	28,500				14 day LD 50 (14 day LD 50 (tolerance)): 5.71 mL/kg; Solubility at room temperature in groundnut oil/liquid paraffin 1:9 (%) [2]: 90%
CCCCCCCCCOC(=O)C(C#N)=Cc1ccc(OC)cc1 [n-Nonyl]	910	341	30,000				Solubility at room temperature in groundnut oil (%) [2]: 55%; Solubility at room temperature in groundnut oil/liquid paraffin 1:9 (%) [2]: 10%
CCCCCCCCOC(=O)C(C#N)=Cc1ccc(OC)cc1 [n-Octyl, 4-methoxy-benzylidene-cyanoacetic acid n-octyl ester]	970	341	30,500				Solubility at room temperature in groundnut oil/liquid paraffin 1:9 (%) [2]: 90%
CCCCCOC(=O)C(C#N)=Cc1ccc(OC)cc1 [n-Pentyl]	1,050	341	28,600				Solubility at room temperature in groundnut oil (%) [2]: 6-7%; Solubility at room temperature in groundnut oil/liquid paraffin 1:9 (%) [2]: 1.4%
COC(=O)C(C#N)=C(c1ccccc1)c1ccccc1 [α-Cyano-β,β-diphenyl-acrylic acid methyl]				520		14,000	
COC(=O)C(C#N)=C(C)c1ccc(OC)cc1 [α-Cyano-β-methyl-β-(4-methoxyphenyl)-acrylic acid methyl ester]				460	318	10,900	
